{
  "source": "patent US20160038597A9",
  "about": "“CARRIER THAT TARGETS FUCOSYLATED MOLECULE-PRODUCING CELLS” (priority 2010, published 2016)",
  "key": {"ASPC-1": {"system": "ASPC-1", "experiment": "14C-fucose binding to cells", "experimental": "(§1) Binding of fucose (fucose refers to L-fucose, unless otherwise stated) to the fucosylated sugar chain high-producing cell line ASPC-1 and fucosylated sugar chain low-producing cell line PANC-1 was investigated using radiolabeled fucose.\n(§2) In a 12-well culture plate, 1×10^5 cells were seeded and cultured overnight, and ^14C-fucose (specific activity: 55 mCi/mmol) diluted with BSA-PBS at a concentration of 0-200 nM was added to the cells and cultured at 4° C. for 1 hr. The cells were washed with cold BSA-PBS, lysed by 1% Triton X100/PBS-0.25% trypsin, and the radioactivity of the ^14C-fucose bound to the cell membrane was measured (FIGS. 3 and 4).\nIn another experiment, in a 12-well culture plate, 2×10^5 cells were seeded and cultured overnight, 10 nmol of ^14C-fucose (specific activity: 55 mCi/mmol) were added to the cells either singly or together with 1 pmol of fucose, and cultured at 4° C. for 1, 3, or 24 hr. The cells under each condition were washed with cold BSA-PBS, lysed by 1% Triton X100/PBS-0.25% trypsin, and the radioactivity of the ^14C-fucose was measured (FIG. 5)."}, "PANC-1": {"system": "PANC-1", "experiment": "14C-fucose binding to cells", "settings": "14C-fucose 0-200 nM, 4° C., 1 hr", "experimental": "as §1, §2"}},
  "data": [
    {"smiles": "C[C@H](O)[C@@H](O)[C@@H](O)[C@H](O)C=O", "note": "[fucose, L-fucose]", "values": [
      {"measurement": "binding of 14C-fucose in competition with excessive non-labeled fucose", "setting": "ASPC-1; 10 nmol 14C-fucose with non-labeled fucose, 4° C., 1, 3 or 24 hr", "value": "inhibited"},
      {"measurement": "binding of fucose to cells (affinity)", "setting": "ASPC-1; 14C-fucose 0-200 nM, 4° C., 1 hr, compared with PANC-1", "value": "affinity is higher"},
      {"measurement": "binding of fucose to cells", "setting": "PANC-1", "value": "binds to ASPC-1 and PANC-1 via a receptor-like mechanism"}
    ]}
  ]
}
